“And” between values parts separate entries of the source, which are not always exact repeats. Equal entries are not always repeated. Inconclusive results and toxic doses are left out. How the source made its calls: active means survival T/C of 150% or more; inactive means T/C below 125% in these data.
Test system: P388 leukemia ip, CD2F1 mice, survival T/C
Assay: NCI In Vivo Anticancer Drug Screen. Data for tumor model P388 Leukemia (intraperitoneal) in CD2F1 (CDF1) mice
Details: endpoint: median survival time, higher = longer survival
In short: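 Mice carrying the transplanted tumor received test compound or vehicle. Survival was recorded in each group, and the value is the treated-group measurement divided by that of the vehicle-treated control group.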

[1] = dose: 60.0 mg/kg/injection, schedule: Q01DX005 (ip), vehicle: Klucel (hydroxypropylcellulose) (HPC)
[2] = dose: 240.0 mg/kg/injection, schedule: Q01DX005 (ip), vehicle: Klucel (hydroxypropylcellulose) (HPC)
[3] = dose: 50.0 mg/kg/injection, schedule: Q01DX009 (ip), vehicle: saline with Tween-80
[4] = dose: 100.0 mg/kg/injection, schedule: Q01DX009 (ip), vehicle: saline with Tween-80
[5] = dose: 200.0 mg/kg/injection, schedule: Q01DX009 (ip), vehicle: saline with Tween-80
[6] = dose: 50.0 mg/kg/injection, schedule: Q01DX005 (ip), vehicle: saline with Tween-80
[7] = dose: 100.0 mg/kg/injection, schedule: Q01DX005 (ip), vehicle: saline with Tween-80
[8] = dose: 200.0 mg/kg/injection, schedule: Q01DX005 (ip), vehicle: saline with Tween-80
[9] = dose: 50.0 mg/kg/injection, schedule: Q01DX009 (ip), vehicle: Klucel (hydroxypropylcellulose) (HPC)
[10] = dose: 100.0 mg/kg/injection, schedule: Q01DX009 (ip), vehicle: Klucel (hydroxypropylcellulose) (HPC)

Measured: T/C

c1ccc(CC(Nc2cccnc2)c2ccccc2)cc1 (stereo unspecified)
inactive: [1] 98 % of control | dose: 120.0 mg/kg/injection, schedule: Q01DX005 (ip), vehicle: Klucel (hydroxypropylcellulose) (HPC) 104 % of control | [2] 101 % of control

O=S(c1ccccc1)c1ccccc1C(O)(C(F)(F)F)C(F)(F)F (stereo unspecified)
inactive: dose: 100.0 mg/kg/injection, schedule: Q04DX002 (ip), vehicle: Klucel (hydroxypropylcellulose) (HPC) 96 % of control | dose: 200.0 mg/kg/injection, schedule: Q04DX002 (ip), vehicle: Klucel (hydroxypropylcellulose) (HPC) 100 % of control | dose: 400.0 mg/kg/injection, schedule: Q04DX002 (ip), vehicle: Klucel (hydroxypropylcellulose) (HPC) 101 % of control

O=C(C1=C(Nc2ccccc2)CCC1)c1ccccc1
inactive: dose: 50.0 mg/kg/injection, schedule: Q01DX009 (ip), vehicle: saline 116 % of control | dose: 100.0 mg/kg/injection, schedule: Q01DX009 (ip), vehicle: saline 106 % of control | dose: 200.0 mg/kg/injection, schedule: Q01DX009 (ip), vehicle: saline 106 % of control

CCCCOC(=O)NCCCl
inactive: [3] 96 % of control | [4] 97 % of control | [5] 102 % of control

Nc1nccc2c1ncn2C1OC(CO)C(O)C1O (stereo unspecified)
inactive: dose: 4.67 mg/kg/injection, schedule: Q03HX024 (ip), vehicle: saline with Tween-80 110 % of control | dose: 4.69 mg/kg/injection, schedule: Q03HX024 (ip), vehicle: saline with Tween-80 114 % of control | dose: 9.38 mg/kg/injection, schedule: Q03HX024 (ip), vehicle: saline with Tween-80 111 % of control and 112 % of control | dose: 12.5 mg/kg/injection, schedule: Q01DX009 (ip), vehicle: saline with Tween-80 94 % of control and 97 % of control | dose: 18.75 mg/kg/injection, schedule: Q03HX024 (ip), vehicle: saline with Tween-80 97 % of control | dose: 25.0 mg/kg/injection, schedule: Q01DX009 (ip), vehicle: saline with Tween-80 92 % of control and 93 % of control | dose: 37.5 mg/kg/injection, schedule: Q03HX024 (ip), vehicle: saline with Tween-80 112 % of control and 117 % of control | [4] 88 % of control and 94 % of control | [5] 86 % of control

O=c1[nH]c2ccccc2c(=O)n1-c1ccccc1
inactive: [4] 101 % of control and 109 % of control | [5] 96 % of control | dose: 400.0 mg/kg/injection, schedule: Q01DX009 (ip), vehicle: saline with Tween-80 113 % of control and 95 % of control

COc1nc(N2CCNCC2)nc2c1CCCC2
inactive: dose: 60.0 mg/kg/injection, schedule: Q01DX005 (ip), vehicle: saline 93 % of control | dose: 120.0 mg/kg/injection, schedule: Q01DX005 (ip), vehicle: saline 103 % of control

CCCCCCCCCCCCCCCC(=O)OCCCCCCCCCCC
inactive: dose: 25.0 mg/kg/injection, schedule: Q04DX003 (ip), vehicle: saline with Tween-80 113 % of control | dose: 50.0 mg/kg/injection, schedule: Q04DX003 (ip), vehicle: saline with Tween-80 95 % of control | dose: 100.0 mg/kg/injection, schedule: Q04DX003 (ip), vehicle: saline with Tween-80 90 % of control

CC(=O)c1c(C)n(-c2ccccc2)c2c1[nH]c1ccccc12
inactive: dose: 3.75 mg/kg/injection, schedule: Q01DX005 (ip), vehicle: Klucel (hydroxypropylcellulose) (HPC) 94 % of control | dose: 7.5 mg/kg/injection, schedule: Q01DX005 (ip), vehicle: Klucel (hydroxypropylcellulose) (HPC) 92 % of control | dose: 15.0 mg/kg/injection, schedule: Q01DX005 (ip), vehicle: Klucel (hydroxypropylcellulose) (HPC) 86 % of control and 93 % of control | [1] 93 % of control | [2] 92 % of control

Nc1ccc2[nH]c(=O)cc(C(=O)O)c2c1
inactive: [6] 92 % of control | [7] 93 % of control | [8] 92 % of control

[Se]=P(c1ccccc1)(c1ccccc1)N1CC1
inactive: dose: 12.5 mg/kg/injection, schedule: Q01DX001 (ip), vehicle: Klucel (hydroxypropylcellulose) (HPC) 99 % of control | dose: 25.0 mg/kg/injection, schedule: Q01DX001 (ip), vehicle: Klucel (hydroxypropylcellulose) (HPC) 104 % of control | dose: 50.0 mg/kg/injection, schedule: Q01DX001 (ip), vehicle: Klucel (hydroxypropylcellulose) (HPC) 101 % of control

C=CCOc1ccccc1/C=N/[N+](C)(C)C
inactive: dose: 12.5 mg/kg/injection, schedule: Q01DX009 (ip), vehicle: saline 100 % of control | dose: 25.0 mg/kg/injection, schedule: Q01DX009 (ip), vehicle: saline 110 % of control

Cc1cc(N2CCN(c3cc(C)c4ccccc4n3)CC2)nc2ccccc12
inactive: [3] 100 % of control | [4] 95 % of control | [5] 100 % of control

O=C(NN(CCO)CCO)c1ccccc1
inactive: [6] 100 % of control | [7] 105 % of control | [8] 100 % of control

O=C(OCC1N=C1c1ccccc1)c1ccc([N+](=O)[O-])cc1 (stereo unspecified)
inactive: dose: 50.0 mg/kg/injection, schedule: Q04DX003 (ip), vehicle: suspension in saline 99 % of control | dose: 100.0 mg/kg/injection, schedule: Q04DX003 (ip), vehicle: suspension in saline 98 % of control | dose: 200.0 mg/kg/injection, schedule: Q04DX003 (ip), vehicle: suspension in saline 100 % of control

O=C1OC[C@H]2[C@H](c3ccc(O)c(O)c3)c3cc(O)c(O)cc3C[C@H]12
inactive: [6] 95 % of control | [7] 95 % of control | [8] 92 % of control

CCCN1C[C@H](CSC)C[C@@H]2c3cccc4[nH]cc(c34)C[C@H]21
inactive: dose: 6.25 mg/kg/injection, schedule: Q01DX009 (ip), vehicle: Klucel (hydroxypropylcellulose) (HPC) 103 % of control | dose: 12.5 mg/kg/injection, schedule: Q01DX009 (ip), vehicle: Klucel (hydroxypropylcellulose) (HPC) 101 % of control | dose: 25.0 mg/kg/injection, schedule: Q01DX009 (ip), vehicle: Klucel (hydroxypropylcellulose) (HPC) 99 % of control

Cc1cc(Nc2ccc(O)cc2)nc(N)n1
inactive: [6] 105 % of control | [7] 99 % of control | [8] 113 % of control

Oc1ccc(N=C2N=c3c(c4ccccc4c4ccccc34)=N2)c2ccccc12
inactive: dose: 25.0 mg/kg/injection, schedule: Q01DX005 (ip), vehicle: saline with Tween-80 98 % of control | [6] 100 % of control | [7] 100 % of control | [8] 107 % of control

O=C1CS/C(=N/N=C/c2nc3ccccc3c(=O)n2-c2ccc(Cl)cc2)N1c1ccccc1
inactive: [8] 88 % of control

CS(=O)(=O)C(CCC(=O)c1ccc2ccccc2c1)C(=O)c1ccccc1 (stereo unspecified)
inactive: dose: 50.0 mg/kg/injection, schedule: Q01DX005 (ip), vehicle: Klucel (hydroxypropylcellulose) (HPC) 88 % of control | dose: 100.0 mg/kg/injection, schedule: Q01DX005 (ip), vehicle: Klucel (hydroxypropylcellulose) (HPC) 89 % of control | dose: 200.0 mg/kg/injection, schedule: Q01DX005 (ip), vehicle: Klucel (hydroxypropylcellulose) (HPC) 92 % of control

C/C1=C2N=C(/C=C3N=C(/C(C)=C4\[N-]C(C(CC(N)=O)C4(C)CCC(=O)NCC(C)OP(=O)(O)OC4C(CO)OC(n5cnc6cc(C)c(C)cc65)C4O)C4(C)N=C1C(CCC(N)=O)C4(C)CC(N)=O)C(CCC(N)=O)C\3(C)C)C(CCC(N)=O)C/2(C)CC(N)=O.[CH2-]CC.[Co+2] (stereo unspecified)
inactive: dose: 76.1 micrograms/kg/injection, schedule: Q#A X Z (ip), vehicle: water 88 % of control | dose: 7610.0 micrograms/kg/injection, schedule: Q#A X Z (ip), vehicle: water 99 % of control

CCn1c(=O)c2cn[nH]c2n(CC)c1=O
inactive: [9] 108 % of control | [10] 104 % of control

CSc1ccc(N2C(=O)CSC2=O)cc1
inactive: [3] 106 % of control | [4] 114 % of control | [5] 109 % of control

CSc1nc(NC2OC(COC(C)=O)C(OC(C)=O)C(OC(C)=O)C2OC(C)=O)c(N=C(C)C(C)=O)c(=O)[nH]1 (stereo unspecified)
inactive: dose: 60.0 mg/kg/injection, schedule: Q01DX005 (ip), vehicle: saline with Tween-80 100 % of control | dose: 120.0 mg/kg/injection, schedule: Q01DX005 (ip), vehicle: saline with Tween-80 96 % of control | dose: 240.0 mg/kg/injection, schedule: Q01DX005 (ip), vehicle: saline with Tween-80 86 % of control

CCCCCCN(CCCCCC)CC(O)c1ccc2c3c(cccc13)CC2 (stereo unspecified)
inactive: [9] 106 % of control | [10] 102 % of control | dose: 200.0 mg/kg/injection, schedule: Q01DX009 (ip), vehicle: Klucel (hydroxypropylcellulose) (HPC) 100 % of control

Reference: PubChem BioAssay AID330 (DTP/NCI, 2004)
